Experimental data: article PMC8373216, “Development and Preclinical Evaluation of New Inhaled Lipoglycopeptides for the Treatment of Persistent Pulmonary Methicillin-Resistant Staphylococcus aureus Infections” (Antimicrobial Agents and Chemotherapy, 2021)
In brackets after ≈: the same amount, converted by molar mass. Read-outs that look alike come from different tables or passages of the source.

Assays:
Streptococcus oralis = experiment: Expanded panel broth microdilution MIC; assay type: cell-based
Streptococcus anginosus = experiment: Expanded panel broth microdilution MIC/MBC; assay type: cell-based; conditions: for MIC: Streptococcus anginosus, read-out: MIC
[1] = test system: MRSA ATCC BAA 1556 (USA300); experiment: In-house broth microdilution MIC screening; assay type: cell-based, Staphylococcus aureus; conditions: Staphylococcus aureus; broth microdilution; read-out: MIC Value, MRSA ATCC BAA 1556
[2] = test system: MRSA (ATCC BAA 1556; USA300); experiment: Acute pulmonary MRSA infection in neutropenic rats, nebulized nose-only inhalation; assay type: in vivo, Staphylococcus aureus; conditions: inhaled at 24 and 32 h postinfection, lungs at 48 h, RV40 14.4 mg/kg, RV94 18.8 mg/kg delivered
Method: Rats were rendered neutropenic with intraperitoneal (i.p.) cyclophosphamide on day −4 (150 mg/kg) and day −1 (100 mg/kg) relative to the challenge. On day 0 at 0 h, rats were challenged with MRSA via intranasal instillation at a target titer of 8.0 to 8.3 log10 CFU. At 24 and 32 h postchallenge, rats were loaded into a 12-port inhalation dosing tower, where they received nebulized drug or vehicle control treatments by nose-only inhalation. Animals were euthanized at 48 h postinfection for enumeration of lung MRSA titer. MRSA lung titer of test article treatments versus control is plotted for three separate experiments. […] Statistics are based on the Kolmogorov-Smirnov test for drug treatment versus control (RV94, P = 0.01). LOD = 2.1 log10 CFU/lungset.
Male Sprague Dawley rats (Envigo, Indianapolis, IN) weighing between 225 and 250 g were used in these studies. Rats were housed and acclimated to the study facility as described in the PK methods section. Rats were rendered neutropenic through a series of intraperitoneal cyclophosphamide (Sigma-Aldrich) injections on day −4 (150 mg/kg) and day −1 (100 mg/kg) relative to the challenge. On day 0 at 0 h, rats were challenged with MRSA ATCC BAA 1556 via intranasal instillation at a target titer of 8.0 to 8.3 log10 CFU using optical density and back-counting inoculum CFU. To prepare the inoculum, a frozen aliquot of the organism stored at −80°C was thawed, transferred into TSB, and incubated at 37°C while shaking for 16 h. Cultures were then centrifuged at 2,000 × g for 5 min, and the resulting pellet was resuspended in PBS and equilibrated. For the challenge procedure, rats were first anesthetized through use of 2 to 5% isoflurane in 100% oxygen, then restrained with a scruff grip and a total of 200 μl of inoculum was quickly introduced to one nare. The rat was held in a vertical position until the challenge was fully inhaled. Rats were monitored following challenge to ensure that normal respiration was achieved and then returned to their cage. […] At necropsy, whole lungs were aseptically removed and lung weights were recorded. […]

S. aureus = experiment: Expanded panel broth microdilution MIC/MBC; conditions: for MIC: Staphylococcus aureus
[3] = test system: Streptococcus dysgalactiae; experiment: Expanded panel broth microdilution MIC/MBC; assay type: cell-based; conditions: for MIC: Streptococcus dysgalactiae
MSSA ATCC 29213 = experiment: In-house broth microdilution MIC screening; assay type: cell-based; conditions: Staphylococcus aureus; broth microdilution; read-out: MIC Value, MSSA ATCC 29213
Staphylococcus hominis = experiment: Expanded panel broth microdilution MIC; assay type: cell-based
Streptococcus mitis = experiment: Expanded panel broth microdilution MIC/MBC; assay type: cell-based; conditions: for MIC: Streptococcus mitis
[4] = test system: Staphylococcus epidermidis; experiment: Expanded panel broth microdilution MIC/MBC; assay type: cell-based; conditions: for MIC: Staphylococcus epidermidis
Clostridioides difficile = experiment: Expanded panel broth microdilution MIC; assay type: cell-based
Clostridium. perfringens = experiment: microbe, parasite or virus in culture; assay type: cell-based
[5] = test system: Streptococcus constellatus; experiment: Expanded panel broth microdilution MIC; assay type: cell-based
Streptococcus pneumoniae = experiment: Expanded panel broth microdilution MIC/MBC; assay type: cell-based

With `CCCCCCCCCCNCCN[C@@]1(C)C[C@H](O[C@H]2[C@H](Oc3c4cc5cc3Oc3ccc(cc3Cl)[C@@H](O)[C@@H](NC(=O)[C@@H](CC(C)C)NC)C(=O)N[C@@H](CC(N)=O)C(=O)N[C@H]5C(=O)N[C@H]3C(=O)N[C@H](C(=O)N[C@H](C(=O)O)c5cc(O)cc(O)c5-c5cc3ccc5O)[C@H](O)c3ccc(c(Cl)c3)O4)O[C@H](CO)[C@@H](O)[C@@H]2O)O[C@@H](C)[C@H]1O` [RV40, N-decylaminoethylvancomycin] the MIC (Streptococcus oralis; S. oralis MGS, 1 isolate) was 0.015 µg/mL (≈ 9.19 nM), the MIC (Streptococcus oralis; Streptococcus oralis, S. oralis (MGS) MMX 5821, read-out: MIC) was 0.015 µg/mL (≈ 9.19 nM) and the “MIC:MBC” value (Streptococcus anginosus; S. anginosus AGS) was over 8. The MIC (Streptococcus anginosus; ATCC33397, S. anginosus (AGS) ATCC 33397) was 0.015 µg/mL (≈ 9.19 nM), the MIC (Streptococcus anginosus; S. anginosus AGS, 1 isolate) was 0.015 µg/mL (≈ 9.19 nM) and the MIC [1] was 0.016 µg/mL (≈ 9.8 nM). For the same molecule, the “Average reduction in lung MRSA titer versus vehicle control” value [2] was 0.8 log10 CFU, the “MIC:MBC” value (S. aureus; S. aureus MRSA, MBC median of n = 5) was 1 and the “MIC:MBC” value (S. aureus; S. aureus MSSA, MBC on one organism) was 1. The “MIC:MBC” value (S. aureus; S. aureus VISA, MBC median of n = 2) was 1, the “MIC:MBC” value (S. aureus; S. aureus hVISA, MBC on one organism) was 1 and the MIC (S. aureus; ATCC13709 / MSSA, S. aureus ATCC 13709, MSSA) was 0.015 µg/mL (≈ 9.19 nM). The MIC (S. aureus; ATCC29213 / MSSA, S. aureus ATCC 29213, MSSA) was 0.008 µg/mL (≈ 4.9 nM), the MIC (S. aureus; ATCC43300 / MRSA, S. aureus ATCC 43300, MRSA) was 0.008 µg/mL (≈ 4.9 nM) and the MIC (S. aureus; ATCCBAA1556|MRSA|USA300, S. aureus ATCC BAA-1556, MRSA, USA300 (expanded panel)) was 0.008 µg/mL (≈ 4.9 nM). It also gave an MIC (S. aureus; ATCCBAA1756|MRSA|NRS384|USA300, S. aureus NRS 384, ATCC BAA-1756, MRSA, USA300) of 0.008 µg/mL (≈ 4.9 nM), an MIC (S. aureus; MRSA / NRS123 / USA400, S. aureus NRS123, MRSA, USA400) of 0.008 µg/mL (≈ 4.9 nM) and an MIC (S. aureus; MRSA / NRS725 / USA300, S. aureus NRS725, MRSA, USA300) of 0.008 µg/mL (≈ 4.9 nM). It also gave an MIC (S. aureus; MRSA / USA300, S. aureus MMX 3982, MRSA, USA300) of 0.008 µg/mL (≈ 4.9 nM), an MIC (S. aureus; MRSA, S. aureus MMX 5715, MRSA) of 0.015 µg/mL (≈ 9.19 nM) and an MIC (S. aureus; MRSA, S. aureus MMX 7899, MRSA) of 0.008 µg/mL (≈ 4.9 nM). The MIC (S. aureus; MRSA, S. aureus MMX 7900, MRSA) was 0.008 µg/mL (≈ 4.9 nM), the MIC (S. aureus; MRSA, S. aureus MMX 7901, MRSA) was 0.008 µg/mL (≈ 4.9 nM) and the MIC (S. aureus; MRSA, S. aureus MMX 7902, MRSA) was 0.015 µg/mL (≈ 9.19 nM). For the same molecule, the MIC (S. aureus; MRSA, S. aureus MMX 7903, MRSA) was 0.008 µg/mL (≈ 4.9 nM), the MIC (S. aureus; MRSA, read-out: MIC (median), S. aureus MRSA, 12 isolates) was 0.008 µg/mL (≈ 4.9 nM) and the MIC (S. aureus; MSSA, S. aureus MMX 7907, MSSA) was 0.008 µg/mL (≈ 4.9 nM). For the same molecule, the MIC (S. aureus; MSSA, S. aureus MMX 7908, MSSA) was 0.015 µg/mL (≈ 9.19 nM), the MIC (S. aureus; MSSA, read-out: MIC (median), S. aureus MSSA, 4 isolates) was 0.012 µg/mL (≈ 7.35 nM) and the MIC (S. aureus; NRS1 / VISA, S. aureus NRS1, VISA, Mu50) was 0.06 µg/mL (≈ 36.8 nM). For the same molecule, the MIC (S. aureus; NRS2, S. aureus NRS2, hVISA;Mu3) was 0.015 µg/mL (≈ 9.19 nM), the MIC (S. aureus; NRS4 / VISA, S. aureus NRS4, VISA) was 0.06 µg/mL (≈ 36.8 nM) and the MIC (S. aureus; NRS13 / VISA, S. aureus NRS13, VISA) was 0.03 µg/mL (≈ 18.4 nM). It also gave an MIC (S. aureus; NRS22 / VISA, S. aureus NRS22, VISA) of 0.06 µg/mL (≈ 36.8 nM), an MIC (S. aureus; NRS23, S. aureus NRS23, hVISA) of 0.03 µg/mL (≈ 18.4 nM) and an MIC (S. aureus; NRS52 / VISA, S. aureus NRS52, VISA) of 0.03 µg/mL (≈ 18.4 nM). The MIC (S. aureus; VISA, read-out: MIC (median), S. aureus VISA, 5 isolates) was 0.06 µg/mL (≈ 36.8 nM), the MIC (S. aureus; read-out: MIC (median), S. aureus hVISA, 2 isolates) was 0.023 µg/mL (≈ 14.1 nM) and the “MIC:MBC” value ([3]; S. dysgalactiae, MBC on one organism) was 1. It also gave an MIC ([3]; S. dysgalactiae MMX 5121, read-out: MIC) of 0.008 µg/mL (≈ 4.9 nM), an MIC ([3]; S. dysgalactiae MMX 5123, read-out: MIC) of 0.12 µg/mL (≈ 73.5 nM) and an MIC ([3]; S. dysgalactiae MMX 5124, read-out: MIC) of 0.015 µg/mL (≈ 9.19 nM). It also gave an MIC ([3]; S. dysgalactiae, 3 isolates, read-out: MIC (median)) of 0.015 µg/mL (≈ 9.19 nM), an MIC (MSSA ATCC 29213) of 0.016 µg/mL (≈ 9.8 nM) and an MIC (Staphylococcus hominis; ATCC27844, S. hominis ATCC 27844, read-out: MIC) of 0.015 µg/mL (≈ 9.19 nM). The MIC (Staphylococcus hominis; S. hominis, 1 isolate, read-out: MIC) was 0.015 µg/mL (≈ 9.19 nM), the “MIC:MBC” value (Streptococcus mitis; S. mitis MGS, MBC on one organism) was 1 and the MIC (Streptococcus mitis; ATCC49456, S. mitis (MGS) ATCC 49456, read-out: MIC) was 0.008 µg/mL (≈ 4.9 nM). The MIC (Streptococcus mitis; S. mitis (MGS) MMX 5798, read-out: MIC) was 0.03 µg/mL (≈ 18.4 nM), the MIC (Streptococcus mitis; S. mitis MGS, 2 isolates, read-out: MIC (median)) was 0.02 µg/mL (≈ 12.3 nM) and the “MIC:MBC” value ([4]; S. epidermidis MRSE, MBC on one organism) was 1. It also gave an MIC ([4]; ATCC49134, S. epidermidis ATCC 49134, MSSE, read-out: MIC) of 0.015 µg/mL (≈ 9.19 nM), an MIC ([4]; MRSE, S. epidermidis MMX 762, MRSE, read-out: MIC) of 0.008 µg/mL (≈ 4.9 nM) and an MIC ([4]; MRSE, S. epidermidis MMX 5145, MRSE, read-out: MIC) of 0.004 µg/mL (≈ 2.45 nM). For the same molecule, the MIC ([4]; MRSE, S. epidermidis MRSE, 2 isolates, read-out: MIC (median)) was 0.008 µg/mL (≈ 4.9 nM), the MIC ([4]; S. epidermidis MSSE, 1 isolate, read-out: MIC) was 0.015 µg/mL (≈ 9.19 nM) and the MIC (Clostridioides difficile; ATCCBAA1805, C. difficile ATCC BAA-1805, ribo 027, read-out: MIC) was 0.06 µg/mL (≈ 36.8 nM). For the same molecule, the MIC (Clostridioides difficile; ATCCBAA1870, C. difficile ATCC BAA-1870, NAP1;ribo 027, read-out: MIC) was 0.12 µg/mL (≈ 73.5 nM), the MIC (Clostridioides difficile; C. difficile ATTC 700057, toxAB-, read-out: MIC) was 0.06 µg/mL (≈ 36.8 nM) and the MIC (Clostridioides difficile; C. difficile NAP1;ribo 027, 1 isolate, read-out: MIC) was 0.12 µg/mL (≈ 73.5 nM). The MIC (Clostridioides difficile; C. difficile ribo 027, 1 isolate, read-out: MIC) was 0.06 µg/mL (≈ 36.8 nM), the MIC (Clostridioides difficile; C. difficile toxAB-, 1 isolate, read-out: MIC) was 0.06 µg/mL (≈ 36.8 nM) and the MIC (Clostridium. perfringens) was 0.015 µg/mL (≈ 9.19 nM). The MIC (Clostridium. perfringens; ATCC13124) was 0.015 µg/mL (≈ 9.19 nM), the MIC ([5]; S. constellatus AGS, 1 isolate) was 0.008 µg/mL (≈ 4.9 nM) and the MIC ([5]; Streptococcus constellatus, S. constellatus (AGS) MMX 5677, read-out: MIC) was 0.008 µg/mL (≈ 4.9 nM). For the same molecule, the “MIC:MBC” value (Streptococcus pneumoniae; S. pneumoniae PISP, MBC on one organism) was 1, the MIC (Streptococcus pneumoniae; S. pneumoniae PRSP, 1 isolate) was at most 0.008 µg/mL and the MIC (Streptococcus pneumoniae; Streptococcus pneumoniae, ATCC49619, S. pneumoniae ATCC 49619, PISP, read-out: MIC) was 0.004 µg/mL (≈ 2.45 nM). The MIC (Streptococcus pneumoniae; Streptococcus pneumoniae, S. pneumoniae MMX 432, PRSP, read-out: MIC) was at most 0.008 µg/mL, the MIC (Streptococcus pneumoniae; Streptococcus pneumoniae, S. pneumoniae MMX 747, PISP, read-out: MIC) was 0.004 µg/mL (≈ 2.45 nM) and the MIC (Streptococcus pneumoniae; Streptococcus pneumoniae, S. pneumoniae PISP, 2 isolates, read-out: MIC (median)) was 0.004 µg/mL (≈ 2.45 nM).
